IC50 data for 38 compounds are collected here from patent US20260103465A1, “GLYCOGEN SYNTHASE KINASE 3 INHIBITORS AND USES THEREOF” (The Broad Institute, Inc., priority 2023, published 2026).

For test [1], the target named is T1, GSK3a (GST-full length GSK3a) (Homo sapiens, UniProt P49840).
T1 construct: GST-full length GSK3a [SignalChem G08-10G]; purchased SignalChem G08-10G
In words: GSK3a TR-FRET kinase inhibition assay. The class given is biochemical. As to the method: (§1) TR-FRET assay was performed in a white, 384 well, low volume, flat bottom plate (Grenier). After a 30 minute preincubation in assay buffer with the indicated concentration of compound, the kinase activity was initiated by the addition of the substrates. 1 nM GSK3a (GST-full length GSK3a [SignalChem G08-10G]) or 1 nM GSK3b (GST-full length GSK3b: [SignalChem G08-9G]) were then incubated at ambient temperature for 100 minutes in 10 μl of 50 mM Tris, pH 7.5, 20 mM MgCl2, 0.05 mM DTT, 100 μg/ml BSA and 1% DMSO, with 200 nM biotinylated peptide substrate (biotinylated and S645 phosphorylated glycogen synthase 631-650) and ATP (e.g., at 2 μM, 4 μM, 10 μM, 100 μM, or 1 mM). The kinase activity was quenched with 2 μl of 250 mM EDTA. A 10 μl volume of 40 nM Strepavidin-d2, 2 nM […] antibody in TR-FRET Detection Buffer (Invitrogen) was then added. After 60 min at room temperature the plate was read on Envision plate reader using Ex: 340 nm, Em: 615 nm and […]. The normalized 665/615 Signal ratio versus log compound concentration was analyzed by XLFIT to yield IC50 values.
(In TR-FRET formats the signal depends on donor and acceptor labels being close together.)

Test [2] addresses T2, GSK3b (GST-full length GSK3b) (Homo sapiens, UniProt P49841).
T2 construct: GST-full length GSK3b: [SignalChem G08-9G]; purchased SignalChem G08-9G
In words: GSK3b TR-FRET kinase inhibition assay. The class given is biochemical. As to the method:
as §1

The mark [3] stands for this setting: 1 mM ATP, Table 3, read-out: GSK3a TR-FRET 1 mM ATP Average IC50.
[4] abbreviates: 1 mM ATP, Table 3, read-out: GSK3b TR-FRET 1 mM ATP Average IC50.
[5] abbreviates: 100 μM ATP, read-out: GSK3a 100 μM ATP Average IC50.
Where [6] appears, read: 100 μM ATP, read-out: GSK3b 100 μM ATP Average IC50.
Setting [7] is: 1 mM ATP, Table 5, read-out: GSK3α TR-FRET 1 mM ATP Average IC50.
Setting [8] is: 1 mM ATP, Table 5, read-out: GSK3β TR-FRET 1 mM ATP Average IC50.
[9] abbreviates: 4 μM ATP, read-out: GSK3α TR-FRET 4 μM ATP GMean IC50.
[10] abbreviates: 2 μM ATP, read-out: GSK3β TR-FRET 2 μM ATP GMean IC50.

Each structure is given as a SMILES string. pIC50: −log10 of the molar value. Read-outs that look alike come from different tables or passages of the source. Some results are limits rather than exact numbers.

T1 sequence (P49840 whole entry): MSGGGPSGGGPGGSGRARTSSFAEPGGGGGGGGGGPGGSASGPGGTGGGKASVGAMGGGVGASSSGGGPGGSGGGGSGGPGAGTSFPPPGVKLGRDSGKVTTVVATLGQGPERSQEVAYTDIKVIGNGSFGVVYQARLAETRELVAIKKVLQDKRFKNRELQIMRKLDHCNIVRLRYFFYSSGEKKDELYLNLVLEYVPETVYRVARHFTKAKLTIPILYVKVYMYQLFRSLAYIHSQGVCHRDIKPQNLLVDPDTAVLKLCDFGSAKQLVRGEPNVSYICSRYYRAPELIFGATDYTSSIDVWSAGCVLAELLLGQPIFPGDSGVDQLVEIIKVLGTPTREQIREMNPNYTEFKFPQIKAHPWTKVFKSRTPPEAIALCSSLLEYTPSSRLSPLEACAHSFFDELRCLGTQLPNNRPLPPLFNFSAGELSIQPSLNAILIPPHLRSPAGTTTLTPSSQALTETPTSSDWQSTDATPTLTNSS
T2 sequence (P49841 whole entry): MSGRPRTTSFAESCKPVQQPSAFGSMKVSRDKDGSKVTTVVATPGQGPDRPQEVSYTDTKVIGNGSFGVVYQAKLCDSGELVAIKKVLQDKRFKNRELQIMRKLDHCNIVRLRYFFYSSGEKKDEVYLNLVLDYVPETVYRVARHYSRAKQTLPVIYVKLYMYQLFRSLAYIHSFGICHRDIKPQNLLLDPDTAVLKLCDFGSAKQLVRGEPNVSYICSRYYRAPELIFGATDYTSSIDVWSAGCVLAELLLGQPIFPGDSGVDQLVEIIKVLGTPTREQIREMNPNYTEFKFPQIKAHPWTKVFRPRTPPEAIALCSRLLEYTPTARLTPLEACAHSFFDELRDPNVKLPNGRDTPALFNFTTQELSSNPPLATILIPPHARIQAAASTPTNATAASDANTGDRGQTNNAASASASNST

As a reminder, the pIC50 is −log10 of the IC50, conventionally taken in molar units. For `CC1(C)CC(=O)C2=C(C1)Nc1ncc(F)c(C3CC3)c1C2(C)c1cccc(S(C)(=O)=O)c1` (single isomer, unassigned) [Compound 153B], the pIC50 in test [1] (setting [3]) and in test [2] (setting [4]) was 4.70 to 5.30 in each case.
With `C=Cc1ccnc2c1C(C)(c1ccccc1)C1=C(CC(C)(C)CC1=O)N2` (single isomer, unassigned) [Compound 111A], the pIC50 was no less than 7.00 in test [1] (setting [5]), 6.00 to 7.00 in test [1] (setting [3]), no less than 7.00 in test [2] (setting [6]) and 6.00 to 7.00 in test [2] (setting [4]).
As to `CC1(C)CC2=C(C(=O)N1)C(C)(c1ccccc1)c1cc(C(F)(F)F)cnc1N2` (single isomer, unassigned) [625A], the pIC50 in test [1] (setting [7]) and in test [2] (setting [8]) was 5.30 to 6.00 throughout.
Consider `CC1(C)CC(=O)C2=C(C1)Nc1ncc(F)c(C#N)c1C2(C)c1cccc(-c2ccncc2CC(F)(F)F)c1` (single isomer, unassigned) [656B], for which the pIC50 in test [1] (setting [7]) and in test [2] (setting [8]) was no less than 7.00 each time.
With `CCC1(c2cccc(-c3ccnc(C)c3C)c2)C2=C(CC(C)(C)CC2=O)Nc2ncccc21` (single isomer, unassigned) [Compound 147A], the pIC50 in test [1] (setting [3]) is 6.00 to 7.00; in test [2] (setting [4]), 5.30 to 6.00.
For the compound `CN(c1cccc(C2(C)C3=C(CC(C)(C)CC3=O)Nc3ncccc32)c1)c1ncccn1` (single isomer, unassigned) [641B], the pIC50 in test [1] (setting [7]) and in test [2] (setting [8]) was 5.30 to 6.00 throughout.
`Cc1cnc2c(c1C#N)C(C)(c1ccccc1)C1=C(CC(C)(C)CC1=O)N2` (single isomer, unassigned) [603A]: the pIC50 in test [1] (setting [7]) and in test [2] (setting [8]) was 4.70 to 5.30 each time.
In the case of `CCC1(c2ccccc2)C2=C(CC(C)(C)NC2=O)Nc2ncc(F)cc21` (single isomer, unassigned) [Compound 1007A], the pIC50 in test [1] (setting [9]) and in test [2] (setting [10]) was less than 5.30 in each case.
`CC1(C)CC(=O)C2=C(Nc3ncc(F)c(C#N)c3[C@@]2(C)c2ccccc2)[C@@H]1F` (single isomer, unassigned) [Compound 617B]: the pIC50 in test [1] (setting [7]) and in test [2] (setting [8]) was 6.00 to 7.00 in each case.
For the compound `COc1cncc(F)c1-c1cccc(C2(C)C3=C(CC(C)(C)CC3=O)Nc3ncc(C(F)(F)F)cc32)c1` (single isomer, unassigned) [Compound 174A], the pIC50 in test [1] (setting [3]) and in test [2] (setting [4]) was 5.30 to 6.00 in each case.
Consider `CC1(C)CC(=O)C2=C(C1)Nc1ncc(C(F)(F)F)c(F)c1C2(C)c1ccccc1` (single isomer, unassigned) [Compound 136A], for which the negative-log IC50 (pIC50) in test [1] (setting [3]) and in test [2] (setting [4]) was 4.70 to 5.30 in each case.
As to `CC1(C)CC2=C(C(=O)N1)C(C)(c1ccccc1)c1c(ncc(F)c1C#N)N2` (single isomer, unassigned) [604B], the pIC50 in test [1] (setting [7]) and in test [2] (setting [8]) was no less than 7.00 each time.
On to `CC1(C)CC2=C(C(=O)N1)C(C)(c1ccccc1)c1c(ncc(C(F)F)c1C#N)N2` (single isomer, unassigned) [628A], for which the pIC50 in test [1] (setting [7]) and in test [2] (setting [8]) was 5.30 to 6.00 each time.
Consider `CC1(C)CC(=O)C2=C(C1)Nc1ncc(F)c(C#N)c1C2(C)c1ccccc1` (single isomer, unassigned) [Compound 121B], for which the pIC50 in test [1] (setting [3]) and in test [2] (setting [4]) was 5.30 to 6.00 in each case.
Regarding `CC1(C)CC(=O)C2=C(C1)Nc1ncc(Br)c(Cl)c1C2(C)c1ccccc1` (single isomer, unassigned) [Compound 145B], the pIC50 in test [1] (setting [3]) and in test [2] (setting [4]) was 4.70 to 5.30 throughout.
For the compound `CC1(C)CC(=O)C2=C(C1)Nc1nccc(CC3CC3)c1C2(C)c1ccccc1` (single isomer, unassigned) [Compound 123B], the pIC50 in test [1] (setting [3]) and in test [2] (setting [4]) was 5.30 to 6.00 throughout.
`CCC1(c2cccc(-c3ccncc3OC)c2)C2=C(CC(C)(C)CC2=O)Nc2ncccc21` (single isomer, unassigned) [Compound 1028B]: the pIC50 in test [1] (setting [9]) and in test [2] (setting [10]) was no less than 7.00 each time.
Consider `CC1(C)CC(=O)C2=C(C1)Nc1ncc(C(C)(C)C)cc1C2(C)c1ccccc1` (single isomer, unassigned) [Compound 124A], for which the pIC50 in test [1] (setting [5]), in test [1] (setting [3]), in test [2] (setting [6]) and in test [2] (setting [4]) was 4.70 to 5.30 in each case.
Turning to `CC1(C)CC(=O)C2=C(C1)Nc1ncc(F)c(F)c1C2(C)c1ccccc1` (single isomer, unassigned) [Compound 116B], the pIC50 in test [1] (setting [3]) and in test [2] (setting [4]) was 6.00 to 7.00 throughout.
Take `CC1(C)CC(=O)C2=C(C1)Nc1ncc(C(F)F)c(C#N)c1C2(C)c1ccccc1` (single isomer, unassigned) [627A]: the pIC50 in test [1] (setting [7]) and in test [2] (setting [8]) was 6.00 to 7.00 throughout.
With `CCC1(c2cccc(C(F)(F)F)c2)C2=C(CC(C)(C)CC2=O)Nc2ncccc21` (single isomer, unassigned) [Compound 1014A], the pIC50 in test [1] (setting [9]) is 5.30 to 6.00; in test [2] (setting [10]), less than 5.30.
As for `CC1(C)CC(=O)C2=C(C1)Nc1ncc(F)c(C#N)c1C2(C)c1cccc(C(F)F)c1` (single isomer, unassigned) [634B], the pIC50 in test [1] (setting [7]) and in test [2] (setting [8]) was no less than 7.00 throughout.
As to `CCC1(c2cccc(-c3cccnc3)c2)C2=C(CC(C)(C)CC2=O)Nc2ncccc21` (single isomer, unassigned) [Compound 1015B], the pIC50 in test [1] (setting [9]) was 5.30 to 6.00; in test [2] (setting [10]) it was less than 5.30.
With `CC(C)c1cnc2c(c1C#N)C(C)(c1ccccc1)C1=C(CC(C)(C)CC1=O)N2` (single isomer, unassigned) [622B], the pIC50 in test [1] (setting [7]) and in test [2] (setting [8]) was 4.70 to 5.30 each time.
As for `CCC1(c2cccc(-c3ccnc(C)c3)c2)C2=C(CC(C)(C)CC2=O)Nc2ncccc21` (single isomer, unassigned) [Compound 1021B], the pIC50 in test [1] (setting [9]) and in test [2] (setting [10]) was 6.00 to 7.00 in each case.
For `CC1(C)CC(=O)C2=C(C1)Nc1ncc(C#N)cc1C2(C)c1ccccc1` (single isomer, unassigned) [Compound 109A], the pIC50 in test [1] (setting [3]) and in test [2] (setting [4]) was 5.30 to 6.00 throughout.
For the compound `COc1cncc(F)c1-c1cccc(C2(C)C3=C(CC(C)(C)CC3=O)Nc3ncc(C)cc32)c1` (single isomer, unassigned) [Compound 155A], the figures for the pIC50 in test [1] (setting [3]) and in test [2] (setting [4]) were 6.00 to 7.00 and 5.30 to 6.00, respectively.
Take `CCC1(c2cccc(-c3ccccn3)c2)C2=C(CC(C)(C)CC2=O)Nc2ncccc21` (single isomer, unassigned) [Compound 1016B]: the pIC50 in test [1] (setting [9]) was 5.30 to 6.00; in test [2] (setting [10]), less than 5.30.
`CC1(C)CC(=O)C2=C(C1)Nc1ncc(F)cc1C2(C)c1cccc(-c2ccncc2CC(F)(F)F)c1` (single isomer, unassigned) [653B]: the pIC50 in test [1] (setting [7]) and in test [2] (setting [8]) was no less than 7.00 each time.
On to `Cc1cnc2c(c1C)C(C)(c1ccccc1)C1=C(CC(C)(C)CC1=O)N2` (single isomer, unassigned) [601B], for which the pIC50 in test [1] (setting [7]) and in test [2] (setting [8]) was 4.70 to 5.30 throughout.
As for `CC1(C)CC(=O)C2=C(C1)Nc1ncc(C(F)(F)F)c(C3CC3)c1C2(C)c1ccccc1` (single isomer, unassigned) [642A], the results for the pIC50 in test [1] (setting [7]) and in test [2] (setting [8]) were 4.70 to 5.30 and 5.30 to 6.00, respectively.
For the compound `CC1(C)CC(=O)C2=C(C1)Nc1ncccc1C2(C)c1cccc(-c2ccncc2C(C)(C)C)c1` (single isomer, unassigned) [Compound 152A], the pIC50 is 5.30 to 6.00 in test [1] (setting [3]) and 4.70 to 5.30 in test [2] (setting [4]).
`CC(C)Oc1cccc(C2(C)C3=C(CC(C)(C)CC3=O)Nc3ncc(C(F)F)c(C#N)c32)c1` (single isomer, unassigned) [650A]: the pIC50 in test [1] (setting [7]) is 4.70 to 5.30; in test [2] (setting [8]), 5.30 to 6.00.
On the same counts, the results for `CC1(C)CC(=O)C2=C(C1)Nc1ncc(C#N)c(C#N)c1C2(C)c1ccccc1` (single isomer, unassigned) [605B] are 4.70 to 5.30 and 4.70 to 5.30.
With `CC(C)n1cncc1-c1cccc(C2(C)C3=C(CC(C)(C)CC3=O)Nc3ncc(C(F)(F)F)cc32)c1` (single isomer, unassigned) [Compound 171A], the pIC50 in test [1] (setting [3]) and in test [2] (setting [4]) was 5.30 to 6.00 throughout.
Regarding `Cn1ncc2c3c(ncc21)NC1=C(C(=O)CC(C)(C)C1)C3(C)c1ccccc1` (single isomer, unassigned) [609B], the figures for the pIC50 in test [1] (setting [7]) and in test [2] (setting [8]) were 4.70 to 5.30 and 5.30 to 6.00, respectively.
On the same counts, the results for `CC1(C)CC(=O)C2=C(Nc3ncc(F)c(C#N)c3[C@]2(C)c2ccccc2)[C@H]1F` (single isomer, unassigned) [Compound 617A] are 4.70 to 5.30 and 4.70 to 5.30.
For `CC1(C)CC(=O)C2=C(C1)Nc1ncc(C(F)(F)F)c(C#N)c1C2(C)c1ccccc1` (single isomer, unassigned) [Compound 137B], the pIC50 in test [1] (setting [3]) and in test [2] (setting [4]) was 5.30 to 6.00 in each case.
